Values joined by “and” are separate entries in the source; they are usually repeats but may differ in a detail not shown here. Equal values may be shown once. Read-outs that look alike come from different tables or passages of the source. Starred links: 1 amine or outer side, 2 acyl side, 3 side chain; linkers in the order of their positions; H or OH if unused. Non-standard residues stand in square brackets, D forms with d. Residues, ends and D or L forms follow the SMILES beside them. NMeI = CC[C@H](C)[C@H](NC)C(=O)O; Suc = O=C(CCC(=O)[*:2])[*:1]; NMeV = CN[C@H](C(=O)O)C(C)C
Tests used:
tiTac3ra = tiTac3ra (Oreochromis niloticus, UniProt A0A075QPN8); test: cell-based; conditions: COS-7 cells, mean ± SEM
tiTac3ra, sequence (A0A075QPN8 1-415): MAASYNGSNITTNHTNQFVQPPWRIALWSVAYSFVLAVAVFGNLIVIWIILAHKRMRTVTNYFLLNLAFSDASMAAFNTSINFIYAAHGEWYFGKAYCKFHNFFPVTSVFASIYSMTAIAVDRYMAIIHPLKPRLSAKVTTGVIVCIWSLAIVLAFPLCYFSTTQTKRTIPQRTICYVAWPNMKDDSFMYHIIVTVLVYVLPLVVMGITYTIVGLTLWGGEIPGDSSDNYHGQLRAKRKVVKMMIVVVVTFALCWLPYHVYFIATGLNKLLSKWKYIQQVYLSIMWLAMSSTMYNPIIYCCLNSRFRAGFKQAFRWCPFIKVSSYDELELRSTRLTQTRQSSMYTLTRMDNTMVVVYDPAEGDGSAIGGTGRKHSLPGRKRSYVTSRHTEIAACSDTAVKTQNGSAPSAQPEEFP
From the text: (§2) Receptor transactivation assays were generally performed according to Biran et al. ([10]). Briefly, in order to study the signaling pathways of the novel fish NKB and NKF analogs, the entire coding sequence of tiTac3ra (GenBank accession no. KF471674), tiTac3rb (GenBank accession no. KF471675), zfTac3ra (GenBank accession no. JF317292) and zfTac3rb (GenBank accession no. JF317293) were inserted into pcDNA3.1 (Invitrogen). To differentiate between the protein kinase A (PKA) and PKC signal transduction pathways, we used a sensitive luciferase (Luc) reporter gene assay. […] Three micrograms of each construct together with three micrograms of a luciferase reporter plasmid were transiently co-transfected into COS-7 cells. […] EC50 values were calculated from dose response curves by means of computerized non-linear curve fitting on baseline-corrected (control) values using Prism version 6 software (GraphPad).

tiTac3rb = tiTac3rb (Oreochromis niloticus, UniProt A0A075QUD7); test: cell-based; conditions: COS-7 cells, mean ± SEM
tiTac3rb, sequence (A0A075QUD7 1-361): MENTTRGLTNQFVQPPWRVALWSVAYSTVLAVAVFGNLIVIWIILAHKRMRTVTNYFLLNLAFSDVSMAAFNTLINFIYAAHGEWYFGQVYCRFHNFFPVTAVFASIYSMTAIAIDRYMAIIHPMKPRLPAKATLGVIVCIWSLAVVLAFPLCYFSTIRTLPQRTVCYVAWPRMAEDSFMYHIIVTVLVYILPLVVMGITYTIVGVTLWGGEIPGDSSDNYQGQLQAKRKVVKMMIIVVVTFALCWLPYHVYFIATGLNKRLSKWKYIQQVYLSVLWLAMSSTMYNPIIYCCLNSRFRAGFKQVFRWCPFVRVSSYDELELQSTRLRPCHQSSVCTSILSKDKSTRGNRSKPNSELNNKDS
From the text: as §2

huTAC3R (NK3R) = molecular target: T1, huTAC3R (NK3R) (Homo sapiens, UniProt P29371); test: CRE-/SRE-Luc receptor transactivation reporter assay in COS-7 cells, human TAC3R; type: cell-based; conditions: mean ± SEM
T1 construct: host or cells: COS-7
T1 sequence (P29371 1-465): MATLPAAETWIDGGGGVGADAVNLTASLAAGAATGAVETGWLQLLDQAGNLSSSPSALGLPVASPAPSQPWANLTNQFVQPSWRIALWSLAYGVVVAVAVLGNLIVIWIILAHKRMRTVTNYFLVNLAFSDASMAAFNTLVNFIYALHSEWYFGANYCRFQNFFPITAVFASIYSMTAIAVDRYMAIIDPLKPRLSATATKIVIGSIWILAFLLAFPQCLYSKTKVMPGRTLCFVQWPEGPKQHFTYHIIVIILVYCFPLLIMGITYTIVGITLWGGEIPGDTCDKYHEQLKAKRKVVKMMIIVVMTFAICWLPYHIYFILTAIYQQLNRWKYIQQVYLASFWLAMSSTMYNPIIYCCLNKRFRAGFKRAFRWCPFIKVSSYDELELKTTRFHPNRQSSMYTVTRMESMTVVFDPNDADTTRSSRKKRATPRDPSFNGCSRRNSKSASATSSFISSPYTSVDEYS
From the text: (§1) Receptor transactivation assays were generally performed according to Biran et al. ([10]). Briefly, in order to study the signaling pathways of the novel fish NKB and NKF analogs, the entire coding sequence of tiTac3ra (GenBank accession no. KF471674), tiTac3rb (GenBank accession no. KF471675), zfTac3ra (GenBank accession no. JF317292) and zfTac3rb (GenBank accession no. JF317293) were inserted into pcDNA3.1 (Invitrogen). To differentiate between the protein kinase A (PKA) and PKC signal transduction pathways, we used a sensitive luciferase (Luc) reporter gene assay. […] The cDNA clone for human TAC3R was obtained from the Missouri S&T cDNA Resource Center (www.cdna.org). Three micrograms of each construct together with three micrograms of a luciferase reporter plasmid were transiently co-transfected into COS-7 cells. […] EC50 values were calculated from dose response curves by means of computerized non-linear curve fitting on baseline-corrected (control) values using Prism version 6 software (GraphPad).

zfTac3rb = molecular target: T2, zfTac3rb (Danio rerio, UniProt F1R3V0); test: CRE-/SRE-Luc receptor transactivation reporter assay in COS-7 cells, zebrafish Tac3rb; type: cell-based; conditions: mean ± SEM
T2 sequence (F1R3V0 1-395): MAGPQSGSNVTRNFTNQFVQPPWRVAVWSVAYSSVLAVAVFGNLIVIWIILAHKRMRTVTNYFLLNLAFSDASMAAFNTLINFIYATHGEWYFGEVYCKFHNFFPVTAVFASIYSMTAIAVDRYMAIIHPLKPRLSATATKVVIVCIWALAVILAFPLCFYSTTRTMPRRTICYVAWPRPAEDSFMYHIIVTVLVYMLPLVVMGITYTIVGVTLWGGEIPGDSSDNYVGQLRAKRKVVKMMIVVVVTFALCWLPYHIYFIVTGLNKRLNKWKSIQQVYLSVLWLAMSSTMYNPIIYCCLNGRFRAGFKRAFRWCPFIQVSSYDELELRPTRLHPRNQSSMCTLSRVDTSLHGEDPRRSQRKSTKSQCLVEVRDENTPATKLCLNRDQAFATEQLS
From the text: as §1

zfTac3ra = molecular target: T3, zfTac3ra (Danio rerio, UniProt H6A6A7); test: CRE-/SRE-Luc receptor transactivation reporter assay in COS-7 cells, zebrafish Tac3ra; type: cell-based; conditions: mean ± SEM
T3 sequence (H6A6A7 1-399): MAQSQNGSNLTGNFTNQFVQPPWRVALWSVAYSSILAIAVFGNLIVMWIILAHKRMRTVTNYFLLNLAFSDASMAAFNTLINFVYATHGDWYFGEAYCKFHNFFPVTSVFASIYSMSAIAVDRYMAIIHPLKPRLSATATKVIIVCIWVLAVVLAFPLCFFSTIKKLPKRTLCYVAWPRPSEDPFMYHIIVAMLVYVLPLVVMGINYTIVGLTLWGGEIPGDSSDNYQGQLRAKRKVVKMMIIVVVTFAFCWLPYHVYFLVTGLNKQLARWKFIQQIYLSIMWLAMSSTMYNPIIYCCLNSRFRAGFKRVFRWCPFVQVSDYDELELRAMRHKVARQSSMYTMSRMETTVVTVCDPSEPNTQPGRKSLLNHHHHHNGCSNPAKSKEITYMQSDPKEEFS
From the text: as §1

female tilapia = test: In vivo effect on GH, FSH and LH plasma levels (ELISA) after IP injection; parameters: species or system Nile tilapia (O. niloticus); conditions: peptides/analogs 100 μg/kg BW, sGnRHa 10 μg/kg BW
Description: Adult female tilapia (BW 89.29 ± 32.93 g) were injected IP with saline, sGnRH analog ([…]; 10 μg/kg BW; [[…],[…]-Net]-mammalian GnRH; Bachem), tiNKB, tiNKF, or their analogs at 100 μg/kg BW (n = 8 fish per group). The fish were bled from the caudal blood vessels into heparinized syringes 1, 2, 4, 8, and 24 h after injection and blood was centrifuged (3,200 rpm for 30 min at 4°C) to obtain plasma samples, which were stored at -20°C until assayed. This time course is according to standard protocols used previously ([28], [29]) to test the effect of GnRH and other hypothalamic neuropeptides on circulating levels of LH, FSH, and GH in tilapia. Blood samples were collected from the caudal vasculature. Three independent experiments were carried out for the in vivo studies. Levels of LH, FSH, and GH in the plasma were measured by specific competitive ELISAs developed for tilapia ([30], [31]) based on recombinant ([…] or rtiGH. Primary antisera was produced against […]β, or rtGH ([31]), and […]βα ([28]) or rtGH was used for generating the standard curves.

[1] = EC50 tiTac3ra CRE, CRE-Luc reporter (PKA/cAMP)
[2] = EC50 tiTac3ra SRE, SRE-Luc reporter (PKC/Ca2+)
[3] = EC50 tiTac3rb CRE, CRE-Luc reporter (PKA/cAMP)
[4] = EC50 tiTac3rb SRE, SRE-Luc reporter (PKC/Ca2+)
[5] = SRE-Luc reporter (PKC/Ca2+), read-out: EC50 huTAC3R (NK3R) SRE
[6] = CRE-Luc reporter (PKA/cAMP), read-out: EC50 huTAC3R (NK3R) CRE
[7] = CRE-Luc reporter (PKA/cAMP), read-out: EC50 zfTac3rb CRE
[8] = SRE-Luc reporter (PKC/Ca2+), read-out: EC50 zfTac3rb SRE
[9] = CRE-Luc reporter (PKA/cAMP), read-out: EC50 zfTac3ra CRE
[10] = SRE-Luc reporter (PKC/Ca2+), read-out: EC50 zfTac3ra SRE

Row | Compound | EC50 (tiTac3ra; [1]) [nM] | EC50 (tiTac3ra; [2]) | EC50 (tiTac3rb; [3]) [nM] | EC50 (tiTac3rb; [4]) [nM] | EC50 (huTAC3R (NK3R); [5]) [nM] | EC50 (huTAC3R (NK3R); [6]) [nM] | EC50 (zfTac3rb; [7]) [nM] | EC50 (zfTac3rb; [8]) [nM] | EC50 (zfTac3ra; [9]) | EC50 (zfTac3ra; [10]) [nM] | duration of increased plasma LH post-injection (female tilapia)
1 | CC[C@H](C)[C@H](NC(=O)[C@H](CC(=O)O)NC(=O)CCC(=O)O)C(=O)N[C@@H](Cc1ccccc1)C(=O)N(C)[C@H](C(=O)NCC(=O)N[C@@H](CC(C)C)C(=O)N[C@@H](CCSC)C(N)=O)[C@@H](C)CC [tiNKB analog, Succ-Asp-Ile-Phe-N(Me)Ile-Gly-Leu-Met-NH2] (Suc-DIF[NMeI]GLM-NH2) | 12.9 ± 0.36 | 12.3 ± 0.29 nM | 6.88 ± 0.29 | 1.73 ± 0.46 | 210.2 ± 1.18 | – | – | – | – | – | –
2 | CSCC[C@H](NC(=O)[C@H](CC(C)C)NC(=O)CNC(=O)[C@@H](NC(=O)[C@H](Cc1ccccc1)NC(=O)[C@H](CO)NC(=O)[C@H](CC(=O)O)NC(=O)[C@H](Cc1ccc(O)cc1)NC(=O)[C@H](CC(=O)O)NC(=O)[C@H](CC(C)C)NC(=O)[C@H](CC(=O)O)NC(=O)[C@H](CC(N)=O)NC(=O)[C@@H](N)Cc1ccc(O)cc1)C(C)C)C(N)=O [tiNKF] (H-YNDLDYDSFVGLM-NH2) | 3.17 ± 0.18 | 0.2 nM and 0.24 nM | 2.13 ± 0.42 | 0.46 ± 0.49 | 32.58 ± 0.05 | 0.51 ± 0.24 | – | – | – | – | –
3 | CC[C@H](C)[C@H](NC(=O)[C@H](CC(=O)O)NC(=O)CCC(=O)O)C(=O)N[C@@H](Cc1ccccc1)C(=O)N(C)[C@H](C(=O)NCC(=O)N[C@@H](CC(C)C)C(=O)N[C@@H](CCSC)C(N)=O)C(C)C [zfNKBa analog, Succ-Asp-Ile-Phe-N(Me)Val-Gly-Leu-Met-NH2] (Suc-DIF[NMeV]GLM-NH2) | – | – | – | – | 0.03 | 11.5 ± 0.4 | 0.781 ± 0.15 | 5.79 ± 0.52 | 873.2 ± 0.64 nM | 7.88 ± 1.89 | –
4 | CC[C@H](C)[C@H](NC(=O)[C@H](CC(=O)O)NC(=O)[C@H](Cc1c[nH]cn1)NC(=O)[C@H](CCSC)NC(=O)[C@@H](N)CCC(=O)O)C(=O)N[C@@H](Cc1ccccc1)C(=O)N[C@H](C(=O)NCC(=O)N[C@@H](CC(C)C)C(=O)N[C@@H](CCSC)C(N)=O)C(C)C [zfNKBa] (H-EMHDIFVGLM-NH2) | – | – | – | – | 0.11 ± 0.3 | 1.71 ± 0.32 | 41.37 ± 0.18 | 1.1 ± 0.13 | 26.5 ± 0.38 nM | 139.6 ± 0.38 | –
5 | CC[C@H](C)[C@H](NC(=O)CNC(=O)[C@@H](NC(=O)[C@@H](N)CO)[C@@H](C)O)C(=O)N[C@@H](CC(N)=O)C(=O)N[C@@H](CCCNC(=N)N)C(=O)N[C@@H](CCC(=O)O)C(=O)N[C@@H](C)C(=O)N[C@@H](Cc1c[nH]cn1)C(=O)N[C@@H](CC(C)C)C(=O)N1CCC[C@H]1C(=O)N[C@@H](Cc1ccccc1)C(=O)N[C@@H](CCCNC(=N)N)C(=O)N1CCC[C@H]1C(=O)N[C@@H](CC(N)=O)C(=O)N[C@@H](CCSC)C(=O)N[C@@H](CC(N)=O)C(=O)N[C@@H](CC(=O)O)C(=O)N[C@H](C(=O)N[C@@H](Cc1ccccc1)C(=O)N[C@H](C(=O)NCC(=O)N[C@@H](CC(C)C)C(=O)N[C@@H](CC(C)C)C(=O)N[C@@H](CCC(=O)O)C(=O)N[C@@H](CCSC)C(=O)N[C@@H](Cc1c[nH]cn1)C(=O)N[C@@H](CC(=O)O)C(=O)N[C@H](C(=O)N[C@@H](Cc1ccccc1)C(=O)N[C@H](C(=O)NCC(=O)N[C@@H](CC(C)C)C(=O)N[C@@H](CCSC)C(N)=O)C(C)C)[C@@H](C)CC)C(C)C)[C@@H](C)CC [zfNKBb] (H-STGINREAHLPFRPNMNDIFVGLLEMHDIFVGLM-NH2) | – | – | – | – | 18.7 ± 0.25 | 17.4 ± 0.15 | 101.4 ± 0.37 | 17.9 ± 0.43 | 0.94 nM and 0.948 nM | 84.98 ± 0.31 | –
6 | CC[C@H](C)[C@H](NC(=O)[C@H](CC(=O)O)NC(=O)[C@H](CC(N)=O)NC(=O)[C@@H](N)Cc1ccc(O)cc1)C(=O)N[C@@H](CC(=O)O)C(=O)N[C@@H](Cc1ccc(O)cc1)C(=O)N[C@@H](CC(=O)O)C(=O)N[C@@H](CO)C(=O)N[C@@H](Cc1ccccc1)C(=O)N[C@H](C(=O)NCC(=O)N[C@@H](CC(C)C)C(=O)N[C@@H](CCSC)C(N)=O)C(C)C [zfNKF] (H-YNDIDYDSFVGLM-NH2) | – | – | – | – | 0.18 ± 0.52 | 1.25 | 0.032 | 25.51 ± 0.23 | 5.47 ± 0.43 nM | 0.51 ± 0.36 | –
7 | [D-Ala^6,Pro^9-Net]-mammalian GnRH [sGnRHa] | – | – | – | – | – | – | – | – | – | – | up to 4 h

Source: article PMC6639853, “Deciphering Direct and Indirect Effects of Neurokinin B and GnRH in the Brain-Pituitary Axis of Tilapia” (Frontiers in Endocrinology, 2019)
